≈ marks a conversion by molar mass, not a printed value. Like-named read-outs stand apart in the source and are kept apart here.
How the values were obtained:
[1] = type: physicochemical; details: room temperature, >24 hours
Procedure: The suspensions were filtered through 0.2 or 0.45 microm filters prior to HPLC analysis. Some filtrates were diluted with MeOH prior to the HPLC analysis.

[2] = MP470FB content in the supernatant of Soluplus/SIF mixtures at various time-points; type: physicochemical; parameters: MP470FB content in the supernatant: unit not given here; details: 37° C.

S=C(NCc1ccc2c(c1)OCO2)N1CCN(c2ncnc3c2oc2ccccc23)CC1 [MP470 FB, amuvatinib]
solubility ([1]; TPGS, aqueous with cosolvent or surfactant or cyclodextrin, thermodynamic from solid, solvent TPGS, read-out: Solubility): 10000 µg/mL (≈ 22.3 mM) | solubility ([1]; Tween 80, aqueous with cosolvent or surfactant or cyclodextrin, thermodynamic from solid, solvent Tween 80, read-out: Solubility): 6600 µg/mL (≈ 14.7 mM) | solubility ([1]; acetic acid, organic solvent or mixture, thermodynamic from solid, solvent Acetic acid, read-out: Solubility): 2900 µg/mL (≈ 6.48 mM) | solubility ([1]; anisole, organic solvent or mixture, thermodynamic from solid, solvent Anisole, read-out: Solubility): 1800 µg/mL (≈ 4.02 mM) | solubility ([1]; ethanol, organic solvent or mixture, thermodynamic from solid, solvent Ethanol, read-out: Solubility): 300 µg/mL (≈ 0.67 mM) | solubility ([1]; ethyl cinnamate, organic solvent or mixture, thermodynamic from solid, solvent Ethyl cinnamate, read-out: Solubility): 3900 µg/mL (≈ 8.71 mM) | solubility ([1]; linoleic acid, oil or lipid, thermodynamic from solid, solvent Linoleic acid, read-out: Solubility): 20 µg/mL (≈ 0.0447 mM) | solubility ([1]; oleic acid, oil or lipid, thermodynamic from solid, solvent Oleic acid, read-out: Solubility): 100 µg/mL (≈ 0.223 mM) | solubility ([1]; propylene carbonate, organic solvent or mixture, thermodynamic from solid, solvent Propylene carbonate, read-out: Solubility): 2900 µg/mL (≈ 6.48 mM) | solubility ([1]; solvent Acetone): 2600 µg/mL (≈ 5.81 mM) | solubility ([1]; solvent Benzyl alcohol): 63000 µg/mL (≈ 141 mM) | solubility ([1]; solvent DMA): >240000 µg/mL | solubility ([1]; solvent DMA, listed as MP470 free base): > 240000 µg/mL | solubility ([1]; solvent DMSO): ~130000 µg/mL (≈ 290 mM) | solubility ([1]; solvent Glycerin): 400 µg/mL (≈ 0.894 mM) | solubility ([1]; solvent Labrasol): 11000 µg/mL (≈ 24.6 mM) | solubility ([1]; solvent Methanol): 500 µg/mL (≈ 1.12 mM) | solubility ([1]; solvent NMP): 300000 to 360000 µg/mL | solubility ([1]; solvent NMP, listed as MP470 free base): ~300000 µg/mL (≈ 670 mM) | solubility ([1]; solvent PEG400): 14000 µg/mL (≈ 31.3 mM) | solubility ([1]; solvent Phosal 50 PG): 500 µg/mL (≈ 1.12 mM) | solubility ([1]; solvent Propylene glycol): 400 µg/mL (≈ 0.894 mM) | solubility ([1]; solvent Tween 20): 8000 µg/mL (≈ 17.9 mM) | solubility ([1]; triacetin, organic solvent or mixture, thermodynamic from solid, solvent Triacetin, read-out: Solubility): 1000 µg/mL (≈ 2.23 mM) | MP470FB content in the supernatant ([2]; 0.2% Soluplus/SIF, MP470FB 0.2 mg/mL, 30 min): 0.082 | MP470FB content in the supernatant ([2]; 0.2% Soluplus/SIF, MP470FB 0.2 mg/mL, 2 hr): 0.084 | MP470FB content in the supernatant ([2]; 0.2% Soluplus/SIF, MP470FB 0.2 mg/mL, 4 hr): 0.089 | MP470FB content in the supernatant ([2]; 0.2% Soluplus/SIF, MP470FB 0.2 mg/mL, 6 hr): 0.087 | MP470FB content in the supernatant ([2]; 0.2% Soluplus/SIF, MP470FB 0.2 mg/mL, 24 hr): 0.107 | MP470FB content in the supernatant ([2]; 0.2% Soluplus/SIF, MP470FB 0.6 mg/mL, 30 min): 0.126 | MP470FB content in the supernatant ([2]; 0.2% Soluplus/SIF, MP470FB 0.6 mg/mL, 2 hr): 0.136 | MP470FB content in the supernatant ([2]; 0.2% Soluplus/SIF, MP470FB 0.6 mg/mL, 4 hr): 0.152 | MP470FB content in the supernatant ([2]; 0.2% Soluplus/SIF, MP470FB 0.6 mg/mL, 6 hr): 0.154 | MP470FB content in the supernatant ([2]; 0.2% Soluplus/SIF, MP470FB 0.6 mg/mL, 24 hr): 0.178 | MP470FB content in the supernatant ([2]; 0.5% Soluplus/SIF, MP470FB 0.2 mg/mL, 30 min): 0.092 | MP470FB content in the supernatant ([2]; 0.5% Soluplus/SIF, MP470FB 0.2 mg/mL, 2 hr): 0.097 | MP470FB content in the supernatant ([2]; 0.5% Soluplus/SIF, MP470FB 0.2 mg/mL, 4 hr): 0.103 | MP470FB content in the supernatant ([2]; 0.5% Soluplus/SIF, MP470FB 0.2 mg/mL, 6 hr): 0.107 | MP470FB content in the supernatant ([2]; 0.5% Soluplus/SIF, MP470FB 0.2 mg/mL, 24 hr): 0.127 | MP470FB content in the supernatant ([2]; 0.5% Soluplus/SIF, MP470FB 0.6 mg/mL, 30 min): 0.155 | MP470FB content in the supernatant ([2]; 0.5% Soluplus/SIF, MP470FB 0.6 mg/mL, 2 hr): 0.190 | MP470FB content in the supernatant ([2]; 0.5% Soluplus/SIF, MP470FB 0.6 mg/mL, 4 hr): 0.228 | MP470FB content in the supernatant ([2]; 0.5% Soluplus/SIF, MP470FB 0.6 mg/mL, 6 hr): 0.235 | MP470FB content in the supernatant ([2]; 0.5% Soluplus/SIF, MP470FB 0.6 mg/mL, 24 hr): 0.315 | MP470FB content in the supernatant ([2]; 1.0% Soluplus/SIF, MP470FB 0.2 mg/mL, 30 min): 0.096 | MP470FB content in the supernatant ([2]; 1.0% Soluplus/SIF, MP470FB 0.2 mg/mL, 2 hr): 0.104 | MP470FB content in the supernatant ([2]; 1.0% Soluplus/SIF, MP470FB 0.2 mg/mL, 4 hr): 0.115 | MP470FB content in the supernatant ([2]; 1.0% Soluplus/SIF, MP470FB 0.2 mg/mL, 6 hr): 0.118 | MP470FB content in the supernatant ([2]; 1.0% Soluplus/SIF, MP470FB 0.2 mg/mL, 24 hr): 0.135 | MP470FB content in the supernatant ([2]; 1.0% Soluplus/SIF, MP470FB 0.6 mg/mL, 30 min): 0.179 | MP470FB content in the supernatant ([2]; 1.0% Soluplus/SIF, MP470FB 0.6 mg/mL, 2 hr): 0.223 | MP470FB content in the supernatant ([2]; 1.0% Soluplus/SIF, MP470FB 0.6 mg/mL, 4 hr): 0.277 | MP470FB content in the supernatant ([2]; 1.0% Soluplus/SIF, MP470FB 0.6 mg/mL, 6 hr): 0.318 | MP470FB content in the supernatant ([2]; 1.0% Soluplus/SIF, MP470FB 0.6 mg/mL, 24 hr): 0.428 | MP470FB content in the supernatant ([2]; 2.0% Soluplus/SIF, MP470FB 0.2 mg/mL, 30 min): 0.101 | MP470FB content in the supernatant ([2]; 2.0% Soluplus/SIF, MP470FB 0.2 mg/mL, 2 hr): 0.110 | MP470FB content in the supernatant ([2]; 2.0% Soluplus/SIF, MP470FB 0.2 mg/mL, 4 hr): 0.126 | MP470FB content in the supernatant ([2]; 2.0% Soluplus/SIF, MP470FB 0.2 mg/mL, 6 hr): 0.138 | MP470FB content in the supernatant ([2]; 2.0% Soluplus/SIF, MP470FB 0.2 mg/mL, 24 hr): 0.170 | MP470FB content in the supernatant ([2]; 2.0% Soluplus/SIF, MP470FB 0.6 mg/mL, 30 min): 0.206 | MP470FB content in the supernatant ([2]; 2.0% Soluplus/SIF, MP470FB 0.6 mg/mL, 2 hr): 0.290 | MP470FB content in the supernatant ([2]; 2.0% Soluplus/SIF, MP470FB 0.6 mg/mL, 4 hr): 0.368 | MP470FB content in the supernatant ([2]; 2.0% Soluplus/SIF, MP470FB 0.6 mg/mL, 6 hr): 0.409 | MP470FB content in the supernatant ([2]; 2.0% Soluplus/SIF, MP470FB 0.6 mg/mL, 24 hr): 0.469 | MP470FB content in the supernatant ([2]; 5.0% Soluplus/SIF, MP470FB 0.2 mg/mL, 30 min): 0.114 | MP470FB content in the supernatant ([2]; 5.0% Soluplus/SIF, MP470FB 0.2 mg/mL, 2 hr): 0.124 | MP470FB content in the supernatant ([2]; 5.0% Soluplus/SIF, MP470FB 0.2 mg/mL, 4 hr): 0.129 | MP470FB content in the supernatant ([2]; 5.0% Soluplus/SIF, MP470FB 0.2 mg/mL, 6 hr): 0.137 | MP470FB content in the supernatant ([2]; 5.0% Soluplus/SIF, MP470FB 0.2 mg/mL, 24 hr): 0.144 | MP470FB content in the supernatant ([2]; 5.0% Soluplus/SIF, MP470FB 0.6 mg/mL, 30 min): 0.244 | MP470FB content in the supernatant ([2]; 5.0% Soluplus/SIF, MP470FB 0.6 mg/mL, 2 hr): 0.342 | MP470FB content in the supernatant ([2]; 5.0% Soluplus/SIF, MP470FB 0.6 mg/mL, 4 hr): 0.374 | MP470FB content in the supernatant ([2]; 5.0% Soluplus/SIF, MP470FB 0.6 mg/mL, 6 hr): 0.411 | MP470FB content in the supernatant ([2]; 5.0% Soluplus/SIF, MP470FB 0.6 mg/mL, 24 hr): 0.467 | MP470FB content in the supernatant ([2]; Control (SIF), MP470FB 0.2 mg/mL, 30 min): 0.002 | MP470FB content in the supernatant ([2]; Control (SIF), MP470FB 0.2 mg/mL, 2 hr): 0 | MP470FB content in the supernatant ([2]; Control (SIF), MP470FB 0.2 mg/mL, 4 hr): 0 | MP470FB content in the supernatant ([2]; Control (SIF), MP470FB 0.2 mg/mL, 6 hr): 0 | MP470FB content in the supernatant ([2]; Control (SIF), MP470FB 0.2 mg/mL, 24 hr): 0 | MP470FB content in the supernatant ([2]; Control (SIF), MP470FB 0.6 mg/mL, 30 min): 0.002 | MP470FB content in the supernatant ([2]; Control (SIF), MP470FB 0.6 mg/mL, 2 hr): 0 | MP470FB content in the supernatant ([2]; Control (SIF), MP470FB 0.6 mg/mL, 4 hr): 0 | MP470FB content in the supernatant ([2]; Control (SIF), MP470FB 0.6 mg/mL, 6 hr): 0 | MP470FB content in the supernatant ([2]; Control (SIF), MP470FB 0.6 mg/mL, 24 hr): 0 | time MP470 is kept stable in solution by interaction with Soluplus ([2]; Soluplus/SIF): at least 24 hours

Reference: patent US20170360791A1, “PHARMACEUTICAL COMPOSITIONS FOR INCREASING THE BIOAVAILABILITY OF POORLY SOLUBLE DRUGS” (ASTEX PHARMACEUTICALS, INC., priority 2014, published 2017)
